≈ marks a conversion by molar mass, not a printed value.
Columns and labels:
Format in all cases: cell-based
[1] = system: Staphylococcus aureus OC4172; test: MIC by microdilution broth method (NCCLS), C Strain; conditions: cation adjusted Mueller-Hinton broth, 35° C., 16-20 hours
Experimental: (§1) Minimum inhibitory concentration (MIC) is an indicator of in vitro antibacterial activity. […] The in vitro antimicrobial activity of representative compounds of the present invention was determined by the microdilution broth method following the test method from the National Committee for Clinical Laboratory Standards (NCCLS). This method is described in the NCCLS Document M7-A4, Vol. 17, No. 2, “Methods for Dilution Antimicrobial Susceptibility Test for Bacteria that Grow Aerobically—Fourth Edition”, which is incorporated herein by reference.
(§2) In this method two-fold serial dilutions of test compound in cation adjusted Mueller-Hinton broth were added to wells in microdilution trays. The test organisms were prepared by adjusting the turbidity of actively growing broth cultures so that the final concentration of test organism after it is added to the wells was approximately 5×10^4 CFU/well. Following inoculation of the microdilution trays, the trays were incubated at 35° C. for 16-20 hours and then read. The amount of growth in the wells containing the test compound was compared with the amount of growth in the growth-control wells (no test compound) used in each tray.
(§3) Representative compounds of the present invention were tested against a variety of pathogenic bacteria with results as listed in Table 2, below.

[2] = system: Enterococcus faecium OC 3312 vancomycin resistant; test: MIC by microdilution broth method (NCCLS), A Strain; conditions: read-out: MIC A Strain
Experimental: as §1, §2, §3

[3] = system: Methicillin-resistant Staphylococcus aureus OC 2878; test: MIC by microdilution broth method (NCCLS), D Strain; conditions: read-out: MIC D Strain
Experimental: as §1, §2, §3

[4] = system: Methicillin-resistant Staphylococcus aureus OC 3726 COL; test: MIC by microdilution broth method (NCCLS), B Strain; conditions: read-out: MIC B Strain
Experimental: as §1, §2, §3

Structure (SMILES) | MIC [1] | MIC [2] | MIC [3] | MIC [4]
CO[C@H]1/C=C/O[C@@]2(C)Oc3c(C)c(O)c4c(O)c(c5c(CN)c[nH]c5c4c3C2=O)NC(=O)/C(C)=C\C=C\[C@H](C)[C@H](O)[C@@H](C)[C@@H](O)[C@@H](C)[C@H](OC(C)=O)[C@@H]1C [Compound 1] | 0.12 µg/mL (≈ 0.16 µM) | < 1 µg/mL | 0.25 µg/mL (≈ 0.333 µM) | 0.25 µg/mL (≈ 0.333 µM)
CO[C@H]1/C=C/O[C@@]2(C)Oc3c(C)c(O)c4c(O)c(c5c(CN(C)Cc6ccc(N7CCN(C)CC7)cc6)c[nH]c5c4c3C2=O)NC(=O)/C(C)=C\C=C\[C@H](C)[C@H](O)[C@@H](C)[C@@H](O)[C@@H](C)[C@H](OC(C)=O)[C@@H]1C [Compound 3] | 1 µg/mL (≈ 1.05 µM) | 2 µg/mL (≈ 2.1 µM) | 1 µg/mL (≈ 1.05 µM) | 1 µg/mL (≈ 1.05 µM)
CO[C@H]1/C=C/O[C@@]2(C)Oc3c(C)c(O)c4c(O)c(c5c(CN(Cc6ccc(N7CCN(C)CC7)cc6)Cc6ccc(N7CCN(C)CC7)cc6)c[nH]c5c4c3C2=O)NC(=O)/C(C)=C\C=C\[C@H](C)[C@H](O)[C@@H](C)[C@@H](O)[C@@H](C)[C@H](OC(C)=O)[C@@H]1C [Compound 5] | 0.25 µg/mL (≈ 0.222 µM) | 1 µg/mL (≈ 0.888 µM) | 0.25 µg/mL (≈ 0.222 µM) | 0.25 µg/mL (≈ 0.222 µM)
CO[C@H]1/C=C/O[C@@]2(C)Oc3c(C)c(O)c4c(O)c(c5c(CNCc6ccc(N7CCN(C)CC7)cc6)c[nH]c5c4c3C2=O)NC(=O)/C(C)=C\C=C\[C@H](C)[C@H](O)[C@@H](C)[C@@H](O)[C@@H](C)[C@H](OC(C)=O)[C@@H]1C [Compound 4] | 1 µg/mL (≈ 1.07 µM) | 1 µg/mL (≈ 1.07 µM) | 0.5 µg/mL (≈ 0.533 µM) | 0.5 µg/mL (≈ 0.533 µM)
CO[C@H]1/C=C/O[C@@]2(C)Oc3c(C)c(O)c4c(O)c(c5c(CN6CCCCC6)c[nH]c5c4c3C2=O)NC(=O)/C(C)=C\C=C\[C@H](C)[C@H](O)[C@@H](C)[C@@H](O)[C@@H](C)[C@H](OC(C)=O)[C@@H]1C [Compound 2] | 4 µg/mL (≈ 4.89 µM) | 8 µg/mL (≈ 9.78 µM) | 4 µg/mL (≈ 4.89 µM) | 4 µg/mL (≈ 4.89 µM)

Reference: patent US20100152267A1, “NOVEL RIFAMYCIN 3,4-(3-SUBSTITUTED AMINOMETHYL) FUSED PYRROLO DERIVATIVES” (priority 2008, published 2010)
